SMILES strings stand for the structures.

Broadly, the IC50 is the point on the concentration scale where inhibition reaches its midpoint. The low end stands for higher potency, the high end for lower potency.

The first assay deals with T1, human type 1 glycine transporter (GlyT1) (Homo sapiens, UniProt P48067).
T1 construct: T98G cells (glioma cells) expressing human type 1 glycine transporter (GlyT1) were used; endogenous in cells; host or cells: T98G cells (human glioma cells)
T1 sequence (P48067 1-706): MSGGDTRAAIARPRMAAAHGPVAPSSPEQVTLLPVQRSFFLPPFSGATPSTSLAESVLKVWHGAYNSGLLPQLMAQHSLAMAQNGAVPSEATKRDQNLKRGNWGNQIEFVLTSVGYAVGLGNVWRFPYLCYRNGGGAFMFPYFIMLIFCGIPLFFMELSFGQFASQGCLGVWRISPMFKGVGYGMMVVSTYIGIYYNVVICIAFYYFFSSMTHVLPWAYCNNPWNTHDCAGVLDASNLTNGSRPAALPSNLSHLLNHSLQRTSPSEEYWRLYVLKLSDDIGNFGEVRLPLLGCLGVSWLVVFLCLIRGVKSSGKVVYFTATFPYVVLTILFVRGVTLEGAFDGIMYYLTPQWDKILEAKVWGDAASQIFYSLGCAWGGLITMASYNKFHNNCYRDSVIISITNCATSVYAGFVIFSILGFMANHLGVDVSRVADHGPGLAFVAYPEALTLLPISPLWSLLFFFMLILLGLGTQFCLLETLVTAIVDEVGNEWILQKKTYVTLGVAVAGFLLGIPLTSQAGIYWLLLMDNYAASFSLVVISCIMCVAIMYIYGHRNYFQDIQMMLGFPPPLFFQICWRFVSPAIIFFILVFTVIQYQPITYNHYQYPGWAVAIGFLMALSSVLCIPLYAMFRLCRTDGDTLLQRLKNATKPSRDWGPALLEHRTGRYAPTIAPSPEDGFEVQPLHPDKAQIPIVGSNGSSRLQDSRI
The assay is described as follows: Glycine uptake inhibition experiment ([3H] glycine uptake in T98G cells expressing GlyT1). It counts as cell-based.
Settings: not given
Here is the method:
Glycine Uptake Inhibition Experiment
A glycine uptake experiment was conducted in accordance with the method published in Neuron, 8, 927-935, 1992. In the experiment, T98G cells (glioma cells) expressing human type 1 glycine transporter (GlyT1) were used. The T98G cells were seeded in a 96-well plate at 2.0×10^4 cells/well and cultured overnight in a CO2 incubator. The test substance was dissolved in a 100% DMSO solution and then dissolved in a 10 mM HEPES buffer solution (pH 7.4) containing 150 mM sodium chloride, 1 mM calcium chloride, 5 mM potassium chloride, 1 mM magnesium chloride, 10 mM glucose and 0.2% bovine serum albumin. After removing the cell culture medium, the test substance was subjected to a 10-min pretreatment. Subsequently, the test substance and [^3H] glycine (final concentration: 250 nM) were added to the cells and reaction was performed at room temperature for 15 minutes. After the end of the reaction, the extracellular fluid was aspirated with a manifold to remove excess labeled glycine present outside the cells, and then the cells were lysed with a 0.5 M aqueous sodium hydroxide solution. The glycine content in the cells was determined by measuring the radioactivity in the cell lysate with a liquid scintillation counter. Glycine uptake in the presence of 10 μM ALX5407 was defined as non-specific uptake, and the value calculated by subtracting the amount of the non-specific uptake from the total uptake in the absence of 10 μM ALX5407 was defined as specific uptake. In addition, glycine uptake inhibitory activity (IC50 value) was calculated from an inhibition curve at the concentrations of each test substance ranging from 10^−9 to 10^−5 M. It should be noted that ALX5407 is an HCl salt of N-[(3R)-3-([1,1′-biphenyl]-4-yloxy)-3-(4-fluorophenyl)propyl]-N-methylglycine.
`C[C@H](O)c1cccc2c1C(F)(F)C(=O)N2Cc1ncc(C(F)(F)F)cc1Cl` [Compound 221, 1-{[3-chloro-5-(trifluoromethyl)pyridin-2-yl]methyl)-3,3-difluoro-4-[(1S)-1-hydroxyethyl]-1,3-dihydro-2H-indol-2-one] displayed an IC50 of 33 nM.
On to `C[C@H](O)c1cccc2c1C(F)(F)C(=O)N2Cc1cnc(Cl)cc1Cl` [Compound 223, 1-[(4,6-dichloropyridin-3-yl)methyl]-3,3-difluoro-4-[(1S)-1-hydroxyethyl]-1,3-dihydro-2H-indol-2-one], for which half-maximal inhibition (IC50) was put at 66 nM.
On to `N#Cc1cc(CN2C(=O)C(F)(F)c3c(C(O)C(F)F)cccc32)c(F)cn1` (single isomer, unassigned) [Compound 219, 4-{[4-(2,2-difluoro-1-hydroxyethyl)-3,3-difluoro-2-oxo-2,3-dihydro-1H-indol-1-yl]methyl)-5-fluoropyridine-2-carbonitrile], for which half-maximal inhibition (IC50) required 180 nM. This IC50 lies about 2.7-fold higher than the previous one.
Take `Cn1c(CN2C(=O)C(F)(F)c3c(C(O)C(F)F)cccc32)nc2cc(F)ccc2c1=O` (single isomer, unassigned) [Compound 178, 2-{[4-(2,2-difluoro-1-hydroxyethyl)-3,3-difluoro-2-oxo-2,3-dihydro-1H-indol-1-yl]methyl}-7-fluoro-3-methylquinazolin-4(3H)-one]: the IC50 stood at 44 nM. This IC50 lies about 4.1-fold lower than the previous one.
Same read-out and setting: the figure for `C[C@H](O)c1cccc2c1C(F)(F)C(=O)N2Cc1cc(C(F)(F)F)c(Cl)cn1` [Compound 212, 1-{[5-chloro-4-(trifluoromethyl)pyridin-2-yl]methyl}-3,3-difluoro-4-[(1S)-1-hydroxyethyl]-1,3-dihydro-2H-indol-2-one] is 8.2 nM; for `C[C@H](O)c1cccc2c1C(F)(F)C(=O)N2Cc1cc(C#N)ncc1F` [Compound 188, 4-({3,3-difluoro-4-[(1S)-1-hydroxyethyl]-2-oxo-2,3-dihydro-1H-indol-1-yl}methyl)-5-fluoropyridine-2-carbonitrile] it is 62 nM; for `C[C@H](O)c1cccc2c1C(F)(F)C(=O)N2Cc1ncc(Cl)cc1Cl` [Compound 225, 1-[(3,5-dichloropyridin-2-yl)methyl]-3,3-difluoro-4-[(1S)-1-hydroxyethyl]-1,3-dihydro-2H-indol-2-one] it is 57 nM.
The same measure, in the same setting: for `C[C@H](O)c1cccc2c1C(F)(F)C(=O)N2Cc1ccc(Br)nc1` [Compound 190, 1-[(6-bromopyridin-3-yl)methyl]-3,3-difluoro-4-[(1S)-1-hydroxyethyl]-1,3-dehydro-2H-indol-2-one] the value was 51 nM.

The assay is the same for the next values; noted with them: glycine uptake inhibition.
In turn, `C[C@H](O)c1cccc2c1C(F)(F)C(=O)N2Cc1cncc(-n2cncn2)c1` [Compound 129] came in with a concentration for half-maximal inhibition (IC50) of 6900 nM.
The same measure, in the same setting: the figure for `CC(O)c1cccc2c1C(F)(F)C(=O)N2Cc1ccnc(F)c1` (stereo not shown) [Compound 29, 3,3-difluoro-1-[(2-fluoropyridin-4-yl)methyl]-4-(1-hydroxyethyl)-1,3-dihydro-2H-indol-2-one] is 77 nM; for `C[C@H](O)c1cccc2c1C(F)(F)C(=O)N2Cc1cc2ccoc2cn1` [Compound 125, 3,3-difluoro-1-(furo[2,3-c]pyridin-5-ylmethyl)-4-[(1S)-1-hydroxyethyl]-1,3-dihydro-2H-indol-2-one] it is 130 nM; for `C[C@H](O)c1cccc2c1C(F)(F)C(=O)N2Cc1cccc(Cl)c1` [Compound 55, 1-(3-chlorobenzyl)-3,3-difluoro-4-[(1S)-1-hydroxyethyl]-1,3-dihydro-2H-indol-2-one] it is 2.2 nM.
In turn, `C[C@H](O)c1cccc2c1C(F)(F)C(=O)N2Cc1cc(C(F)F)ccn1` [Compound 122, 1-{[4-(difluoromethyl)pyridin-2-yl]methyl}-3,3-difluoro-4-{(1S)-1-hydroxyethyl]-1,3-dihydro-2H-indol-2-one] registered an IC50 of 220 nM.
On the same count and under the same terms, the figure for `CC(O)c1cccc2c1C(F)(F)C(=O)N2Cc1cccc(Cl)n1` (stereo not shown) [Compound 1, 1-[(6-chloropyridin-2-yl)methyl]-3,8-difluoro-4-(1-hydroxyethyl)-1,3-dihydro-2H-indol-2-one] is 15 nM.
Take `COc1cccc(CN2C(=O)C(F)(F)c3c([C@H](C)O)cccc32)n1` [Compound 68, 3,3-difluoro-4-[(1S)-1-hydroxyethyl]-1-[(6-methoxypyridin-2-yl)methyl]-1,3-dihydro-2H-indol-2-one]: the IC50 was 76 nM.
The molecule `C[C@H](O)c1cccc2c1C(F)(F)C(=O)N2Cc1cccc(F)c1` [Compound 56, 3,3-difluoro-1-(3-fluorobenzyl)-4-[(1S)-1-hydroxyethyl)-1,3-dihydro-2H-indol-2-one] gave a half-maximal inhibitory concentration (IC50) of 9.1 nM. Compared with the last molecule, the IC50 is about 8.4-fold lower.
The molecule `C[C@H](O)c1cccc2c1C(F)(F)C(=O)N2Cc1ccsc1` [Compound 80, 3,3-difluoro-4-[(1S)-1-hydroxyethyl]-1-(thiophen-3-ylmethyl)-1,3-dihydro-2H-indol-2-one] came in with a half-maximal inhibitory concentration (IC50) of 28 nM.
On the same count and under the same terms, for `CC(O)c1cccc2c1C(F)(F)C(=O)N2Cc1cccc(Cl)n1` (single isomer, unassigned) [Compound 4] the value was 6.5 nM; for `O=C1N(Cc2cc(Cl)ccn2)c2cccc([C@@H](O)C(F)(F)F)c2C1(F)F` [Compound 145, 1-[(4-chloropyndin-2-yl)methyl]-3,3-difluoro-4-[(1R)-2,2,2-trifluoro-1-hydroxyethyl]-1,3-dihydro-2H-indol-2-one], 43 nM; for `N#Cc1cc(CN2C(=O)C(F)(F)c3c(C(O)C(F)F)cccc32)ccn1` (single isomer, unassigned) [Compound 109, 4-{[4-(2,2-difluoro-1-hydroxyethyl]-3,3-difluoro-2-oxo-2,3-dihydro-1H-indol-1-yl]methyl}pyridine-2-carbonitrile], 88 nM.
Still for that read-out and setting: the figure for `CC(c1cccc(Cl)n1)N1C(=O)C(F)(F)c2c([C@H](C)O)cccc21` (single isomer, unassigned) [Compound 53] is 140 nM.
Still for that read-out and setting: the figure for `O=C1N(Cc2cncc(-n3nccn3)c2)c2cccc([C@@H](O)C(F)(F)F)c2C1(F)F` [Compound 134, 3,3-difluoro-1-{[5-(2H-1,2,3-triazol-2-yl)pyridin-3-yl]methyl}-4-[(1R)-2,2,2-trifluoro-1-hydroxyethyl]-1,3-dihydro-2H-indol-2-one] is 66 nM; for `C[C@@H](O)c1cccc2c1C(F)(F)C(=O)N2Cc1nc2ccccc2c(=O)n1C` [Compound 39, 2-({3,3-difluoro-4-[(1R)-1-hydroxyethyl]-2-oxo-2,3-dihydro-1H-indol-1-yl}methyl)-3-methylquinazolin-4(3H)-one] it is 620 nM; for `CC(c1cccc(Cl)n1)N1C(=O)C(F)(F)c2c([C@H](C)O)cccc21` (single isomer, unassigned) [Compound 52] it is 330 nM.
`Cn1c(CN2C(=O)C(F)(F)c3c([C@@H](O)C(F)(F)F)cccc32)nc2ccccc21` [Compound 137] yielded an IC50 of 150 nM. Compared with the last molecule, the IC50 is about 2.2-fold lower.
Still for that read-out and setting: for `O=C1N(Cc2ccnc(Cl)c2)c2cccc([C@H](O)C(F)(F)F)c2C1(F)F` [Compound 31, 1-[(2-chloropyridin-4-yl)methyl]-3,3-difluoro-4-[(1S)-2,2,2-trifluoro-1-hydroxyethyl]-1,3-dihydro-2H-indol-2-one] the value was 350 nM.
Same read-out and setting: for `C[C@H](O)c1cccc2c1C(F)(F)C(=O)N2Cc1cncc(C(F)F)c1` [Compound 116, 1-{[5-(difluoromethyl)pyridin-3-yl]methyl}-3,3-difluoro-4-[(1S)-1-hydroxyethyl]-1,3-dihydro-2H-indol-2-one] the value was 110 nM.
The same measure, in the same setting: the figure for `O=C1N(Cc2ccnc(C(F)F)c2)c2cccc([C@@H](O)C(F)(F)F)c2C1(F)F` [Compound 139, 1-[[2-(difluoromethyl)pyridin-4-yl]methyl]-3,3-difluoro-4-[(1R)-2,2,2-trifluoro-1-hydroxyethyl]-1,3-dihydro-2H-indol-2-one] is 45 nM.

Source of the values: US20160159814A1, “GLYCINE TRANSPORTER INHIBITOR” (TAISHO PHARMACEUTICAL CO., LTD., priority 2013, published 2016).
